Data published in patent publication US9796711B2, “Substituted pyrazolo[3,4-b]pyridin-6-carboxylic acids and method of use” (AbbVie S.àr.l., priority 2015, dated 2017).

Experiments:
[1] = target: T1, ΔF508-CFTR (Homo sapiens, UniProt P13569, DEL508-508); assay: CFTR cell surface levels using HRP-tagged ΔF508-CFTR expressing CFBE cells, intrinsic corrector capacity; assay type: cell-based; conditions: HRP-tagged ΔF508-CFTR CFBE41o- cells, compounds alone (intrinsic corrector capacity), 20 hours at 33° C.; for % Activation: positive control 3 μM corrector; for EC50: read-out: EC50
T1 construct: host or cells: CFBE41o-, doxycycline-inducible
T1 sequence (P13569 with tags, fused parts or gaps DEL508-508): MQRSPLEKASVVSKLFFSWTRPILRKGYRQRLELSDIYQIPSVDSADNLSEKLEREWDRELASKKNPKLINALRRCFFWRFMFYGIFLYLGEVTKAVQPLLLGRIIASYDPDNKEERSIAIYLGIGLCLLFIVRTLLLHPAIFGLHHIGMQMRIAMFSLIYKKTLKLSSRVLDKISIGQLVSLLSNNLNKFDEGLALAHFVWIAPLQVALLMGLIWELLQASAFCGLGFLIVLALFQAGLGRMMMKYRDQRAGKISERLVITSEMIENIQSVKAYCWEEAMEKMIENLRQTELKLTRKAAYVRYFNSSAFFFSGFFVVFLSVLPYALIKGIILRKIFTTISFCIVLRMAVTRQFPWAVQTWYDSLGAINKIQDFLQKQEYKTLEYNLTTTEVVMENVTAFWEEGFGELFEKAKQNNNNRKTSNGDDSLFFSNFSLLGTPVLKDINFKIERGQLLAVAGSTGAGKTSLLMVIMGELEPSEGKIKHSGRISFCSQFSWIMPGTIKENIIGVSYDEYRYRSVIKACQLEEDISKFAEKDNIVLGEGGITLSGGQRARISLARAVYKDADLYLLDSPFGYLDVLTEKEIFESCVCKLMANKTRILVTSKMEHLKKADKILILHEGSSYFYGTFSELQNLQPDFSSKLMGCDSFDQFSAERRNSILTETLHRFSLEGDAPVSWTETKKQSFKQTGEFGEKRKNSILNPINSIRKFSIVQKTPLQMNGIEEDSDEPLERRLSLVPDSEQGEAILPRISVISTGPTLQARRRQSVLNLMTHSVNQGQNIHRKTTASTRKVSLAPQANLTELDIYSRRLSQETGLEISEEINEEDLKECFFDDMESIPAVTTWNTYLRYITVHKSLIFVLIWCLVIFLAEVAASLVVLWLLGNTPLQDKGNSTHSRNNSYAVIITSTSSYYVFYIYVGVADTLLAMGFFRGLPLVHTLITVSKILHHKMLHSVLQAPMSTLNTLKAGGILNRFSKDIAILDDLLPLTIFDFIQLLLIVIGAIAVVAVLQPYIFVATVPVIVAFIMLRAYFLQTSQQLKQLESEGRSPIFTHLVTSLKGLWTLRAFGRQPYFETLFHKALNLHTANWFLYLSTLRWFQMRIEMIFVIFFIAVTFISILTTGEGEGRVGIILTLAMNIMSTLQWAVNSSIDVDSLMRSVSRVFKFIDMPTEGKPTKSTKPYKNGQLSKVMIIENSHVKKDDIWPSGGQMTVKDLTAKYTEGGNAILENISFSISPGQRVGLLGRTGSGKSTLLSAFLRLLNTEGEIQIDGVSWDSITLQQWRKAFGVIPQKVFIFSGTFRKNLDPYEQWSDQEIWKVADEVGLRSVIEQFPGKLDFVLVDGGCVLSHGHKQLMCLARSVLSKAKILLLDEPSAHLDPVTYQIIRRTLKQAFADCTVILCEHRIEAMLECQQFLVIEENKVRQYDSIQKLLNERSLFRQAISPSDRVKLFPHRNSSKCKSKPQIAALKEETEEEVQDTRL
Source text: Measuring CFTR Cell Surface Levels Using HRP-Tagged AF508-CFTR Expressing CFBE Cells
The HRP-tagged AF508-CFTR cell assay measures the expression of CFTR-ΔF508 at the plasma membrane. CFTR-ΔF508 has a folding defect leading to absence of protein at the plasma membrane. This assay is used to evaluate the capacity of compounds to increase the expression of CFTR-ΔF508 at the plasma membrane. The CFTR-ΔF508 is tagged with HRP (horse radish peroxidase enzyme) within the ECL4 (Extracellular loop 4) of CFTR (Phuan, P.-W. et al. Synergy-based small-molecule screen using a human lung epithelial cell line yields AF508-CFTR correctors that augment VX-809 maximal efficacy. Mol. Pharmacol. 86, 42-51 (2014)). When HRP-tagged AF508-CFTR is present at the plasma membrane, the HRP enzyme activity can be measured. The amount of CFTR-ΔF508 that can be rescued to the plasma membrane is correlated with the amount of functional enzyme that can be measured.
There are several ways to measure the capacity of compounds to rescue CFTR-ΔF508 to the plasma membrane; either compounds are evaluated on their own and the impact on plasma membrane levels is measured or compounds are evaluated in combination with a co-corrector, i.e. a compound that rescues CFTR-ΔF508 to the plasma membrane but rescue can be enhanced by addition of compounds due to a complementary mode of action.
Activity of Compounds for their Intrinsic Corrector Capacity:
For this purpose doxycycline-inducible AF508-CFTR-HRP expressing CFBE4lo-cells (obtained from Gergely Lukacs, McGill University) were maintained in MEM (Gibco; 31095) supplemented with 10% fetal bovine serum (Hyclone; SV30160.03) under puromycin (3 μg/mL) and G418 selection (0.2 mg/mL). For compound testing, cells were seeded at 4000 cells/well in white 384-well plates (Greiner; 781080) in 50 μL medium containing 0.5 μg/mL doxycycline and incubated for 68 hours at 37° C., 5% CO2. On day four, 10 μL test compounds diluted in PBS were added to the plates at a final DMSO concentration of 0.1%. All compound plates contained negative controls (DMSO) and positive controls (3 μM corrector, 3-[(2R,4R)-4-({[1-(2,2-difluoro-1,3-benzodioxol-5-yl)cyclopropyl]carbonyl}amino)-7-methoxy-3,4-dihydro-2H-chromen-2-yl]benzoic acid). Cell plates were incubated at 33° C., 5% CO2 for 20 hours. On day five, the cells were washed five times with phosphate-buffered saline, and HRP activity was assayed by the addition of 50 μL/well of HRP substrate (SuperSignal™ West Pico Chemiluminescent Substrate, Thermo Scientific; 34080). After incubation for 15 minutes in the dark, chemiluminescence was measured using a plate reader (EnVision®, Perkin Elmer). Raw data were normalized to percentage activity values using the equation: 100×(Sample−Negative control)/(Positive control−Negative Control).

[2] = target: T1, ΔF508-CFTR; assay: CFTR cell surface levels using HRP-tagged ΔF508-CFTR expressing CFBE cells, in the presence of a co-corrector; assay type: cell-based; conditions: HRP-tagged ΔF508-CFTR expressing CFBE cells, in the presence of 3 μM co-corrector; for EC50: read-out: EC50
Outline: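 Cells were seeded with 0.5 μg/mL doxycycline and held 68 h at 37 °C. Test compounds plus 3 μM co-corrector (final 0.1% DMSO) were then added for 20 h at 33 °C. Washed cells received HRP substrate, and luminescence was normalized between DMSO and 3 μM co-corrector controls.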

| SMILES | % Activation [1] | EC50 [1] | % Activation [2] | EC50 [2] |
| --- | --- | --- | --- | --- |
| C=C(C)c1nn(-c2ccccc2)c2nc(C(=O)O)cc(-c3ccc(N4CCOCC4)cc3)c12 [compound 48, 4-[4-(morpholin-4-yl)phenyl]-1-phenyl-3-(prop-1-en-2-yl)-1H-pyrazolo[3,4-b]pyridine-6-carboxylic acid] | 163.7% | 989 nM |  |  |
| Cc1c(C(=O)O)nc2c(c(C)nn2-c2ccccc2)c1-c1ccc(N2CCOCC2)cc1 [compound 42, 3,5-dimethyl-4-[4-(morpholin-4-yl)phenyl]-1-phenyl-1H-pyrazolo[3,4-b]pyridine-6-carboxylic acid] | 74.83% | 3340 nM |  |  |
| O=C(O)c1cc(N2CCN(CCOCCO)CC2)c2c(C3CCC3)nn(-c3ccccc3)c2n1 [compound 714, 3-cyclobutyl-4-{4-[2-(2-hydroxyethoxy)ethyl]piperazin-1-yl}-1-phenyl-1H-pyrazolo[3,4-b]pyridine-6-carboxylic acid] |  |  | 212.5% | 1410 nM |
| CN(C)[C@@H]1CCN(c2cc(C(=O)O)nc3c2c(C2CCC2)nn3-c2ccccc2)C1 [compound 567, 3-cyclobutyl-4-[(3R)-3-(dimethylamino)pyrrolidin-1-yl]-1-phenyl-1H-pyrazolo[3,4-b]pyridine-6-carboxylic acid] |  |  | 302.8% | 2110 nM |
| CC(C)c1nn(-c2ccc(F)cc2)c2nc(C(=O)O)cc(OCC3CCCO3)c12 (centres unmarked) [compound 609, 1-(4-fluorophenyl)-4-[(oxolan-2-yl)methoxy]-3-(propan-2-yl)-1H-pyrazolo[3,4-b]pyridine-6-carboxylic acid] |  |  | 336.4% | 1040 nM |
| CN(C)C(=O)C1(N2CCCC2=O)CCN(c2cc(C(=O)O)nc3c2c(C2CCC2)nn3-c2ccccc2)CC1 [compound 718, 3-cyclobutyl-4-[4-(dimethylcarbamoyl)-4-(2-oxopyrrolidin-1-yl)piperidin-1-yl]-1-phenyl-1H-pyrazolo[3,4-b]pyridine-6-carboxylic acid] |  |  | 209.8% | 1670 nM |
| O=C(O)c1cc(N2CC(N3CCC(N4CCOCC4)CC3)C2)c2c(C3CCC3)nn(-c3ccccc3)c2n1 [compound 725, 3-cyclobutyl-4-{3-[4-(morpholin-4-yl)piperidin-1-yl]azetidin-1-yl}-1-phenyl-1H-pyrazolo[3,4-b]pyridine-6-carboxylic acid] |  |  | 173.2% | 869 nM |
| CCOCC(=O)N1CCN(c2cc(C(=O)O)nc3c2c(C2CCC2)nn3-c2ccccc2)CC1 [compound 696, 3-cyclobutyl-4-[4-(ethoxyacetyl)piperazin-1-yl]-1-phenyl-1H-pyrazolo[3,4-b]pyridine-6-carboxylic acid] |  |  | 346.8% | 1670 nM |
| CNC(=O)CN1CCN(c2cc(C(=O)O)nc3c2c(C2CCC2)nn3-c2ccccc2)CC1 [compound 569, 3-cyclobutyl-4-{4-[2-(methylamino)-2-oxoethyl]piperazin-1-yl}-1-phenyl-1H-pyrazolo[3,4-b]pyridine-6-carboxylic acid] |  |  | 259.37% | 3060 nM |
| O=C(O)c1cc(N2CCC(N3CCCC(C(=O)N4CCOCC4)C3)CC2)c2c(C3CCC3)nn(-c3ccccc3)c2n1 (centres unmarked) [compound 711, 3-cyclobutyl-4-[3-(morpholine-4-carbonyl)[1,4′-bipiperidin]-1′-yl]-1-phenyl-1H-pyrazolo[3,4-b]pyridine-6-carboxylic acid] |  |  | 248.8% | 1110 nM |
| COCCN1CCN(C2CCN(c3cc(C(=O)O)nc4c3c(C(C)C)nn4-c3ccc(F)cc3)CC2)CC1 [compound 746, 1-(4-fluorophenyl)-4-{4-[4-(2-methoxyethyl)piperazin-1-yl]piperidin-1-yl}-3-(propan-2-yl)-1H-pyrazolo[3,4-b]pyridine-6-carboxylic acid] |  |  | 418.4% | 549 nM |
| CCN(CC)CCCC1CCN(c2cc(C(=O)O)nc3c2c(C2CCC2)nn3-c2ccccc2)CC1 [compound 731, 3-cyclobutyl-4-{4-[3-(diethylamino)propyl]piperidin-1-yl}-1-phenyl-1H-pyrazolo[3,4-b]pyridine-6-carboxylic acid] |  |  | 399.5% | 94.5 nM |
| CC(C)(O)C1CCN(c2cc(C(=O)O)nc3c2c(C2CCC2)nn3-c2ccccc2)CC1 [compound 659, 3-cyclobutyl-4-[4-(2-hydroxypropan-2-yl)piperidin-1-yl]-1-phenyl-1H-pyrazolo[3,4-b]pyridine-6-carboxylic acid] |  |  | 424.5% | 69.5 nM |
| CC(C)c1nn(-c2ccc(F)cc2)c2nc(C(=O)O)cc(N3CCC(N(C)C4COC4)CC3)c12 [compound 751, 1-(4-fluorophenyl)-4-{4-[methyl(oxetan-3-yl)amino]piperidin-1-yl}-3-(propan-2-yl)-1H-pyrazolo[3,4-b]pyridine-6-carboxylic acid] |  |  | 400.2% | 1590 nM |
| CN1CCCN(C(=O)CCN2CCN(c3cc(C(=O)O)nc4c3c(C3CCC3)nn4-c3ccccc3)CC2)CC1 [compound 717, 3-cyclobutyl-4-{4-[3-(4-methyl-1,4-diazepan-1-yl)-3-oxopropyl]piperazin-1-yl}-1-phenyl-1H-pyrazolo[3,4-b]pyridine-6-carboxylic acid] |  |  | 124.6% | 5000 nM |
| O=C(O)c1cc(N2CCCN(CC3CCCO3)CC2)c2c(C3CCC3)nn(-c3ccccc3)c2n1 (centres unmarked) [compound 572, 3-cyclobutyl-4-{4-[(oxolan-2-yl)methyl]-1,4-diazepan-1-yl}-1-phenyl-1H-pyrazolo[3,4-b]pyridine-6-carboxylic acid] |  |  | 330.8% | 1190 nM |
| CC(O)CN1CCC(N2CCN(c3cc(C(=O)O)nc4c3c(C3CCC3)nn4-c3ccccc3)CC2)CC1 (centres unmarked) [compound 727, 3-cyclobutyl-4-{4-[1-(2-hydroxypropyl)piperidin-4-yl]piperazin-1-yl}-1-phenyl-1H-pyrazolo[3,4-b]pyridine-6-carboxylic acid] |  |  | 348% | 1670 nM |
| CN1CCCC(CN(C)c2cc(C(=O)O)nc3c2c(C2CCC2)nn3-c2ccccc2)C1 (centres unmarked) [compound 593, 3-cyclobutyl-4-{methyl [(1-methylpiperidin-3-yl)methyl]amino}-1-phenyl-1H-pyrazolo[3,4-b]pyridine-6-carboxylic acid] |  |  | 313.3% | 1170 nM |
| CCOCCN1CCC(N2CCN(c3cc(C(=O)O)nc4c3c(C(C)C)nn4-c3ccc(F)cc3)CC2)CC1 [compound 741, 4-{4-[1-(2-ethoxyethyl)piperidin-4-yl]piperazin-1-yl}-1-(4-fluorophenyl)-3-(propan-2-yl)-1H-pyrazolo[3,4-b]pyridine-6-carboxylic acid] |  |  | 303% | 669 nM |
| CC(C)c1nn(-c2ccc(F)cc2)c2nc(C(=O)O)cc(OCCCN(C)C)c12 [compound 606, 4-[3-(dimethylamino)propoxy]-1-(4-fluorophenyl)-3-(propan-2-yl)-1H-pyrazolo[3,4-b]pyridine-6-carboxylic acid] |  |  | 199.7% | 1770 nM |
| COc1cc(C(=O)O)nc2c1c(C1CCC1)nn2-c1ccccc1 [compound 584, 3-cyclobutyl-4-methoxy-1-phenyl-1H-pyrazolo[3,4-b]pyridine-6-carboxylic acid] |  |  | 202.2% | 2880 nM |
| O=C(O)c1cc(N2CC(N3CCOCC3)C2)c2c(C3CCC3)nn(-c3ccccc3)c2n1 [compound 709, 3-cyclobutyl-4-[3-(morpholin-4-yl)azetidin-1-yl]-1-phenyl-1H-pyrazolo[3,4-b]pyridine-6-carboxylic acid] |  |  | 223.9% | 1670 nM |
